This note sets out measurements from BindingDB's records for doi:10.1021/jm0603116 (Infinity Pharmaceuticals, 2006).

This test has as its target Endoplasmin (Canis lupus familiaris, UniProt P41148). Nature of the test: Inhibition of BODIPY-AG binding to dog Grp94.

Chain of Endoplasmin (P41148 whole entry): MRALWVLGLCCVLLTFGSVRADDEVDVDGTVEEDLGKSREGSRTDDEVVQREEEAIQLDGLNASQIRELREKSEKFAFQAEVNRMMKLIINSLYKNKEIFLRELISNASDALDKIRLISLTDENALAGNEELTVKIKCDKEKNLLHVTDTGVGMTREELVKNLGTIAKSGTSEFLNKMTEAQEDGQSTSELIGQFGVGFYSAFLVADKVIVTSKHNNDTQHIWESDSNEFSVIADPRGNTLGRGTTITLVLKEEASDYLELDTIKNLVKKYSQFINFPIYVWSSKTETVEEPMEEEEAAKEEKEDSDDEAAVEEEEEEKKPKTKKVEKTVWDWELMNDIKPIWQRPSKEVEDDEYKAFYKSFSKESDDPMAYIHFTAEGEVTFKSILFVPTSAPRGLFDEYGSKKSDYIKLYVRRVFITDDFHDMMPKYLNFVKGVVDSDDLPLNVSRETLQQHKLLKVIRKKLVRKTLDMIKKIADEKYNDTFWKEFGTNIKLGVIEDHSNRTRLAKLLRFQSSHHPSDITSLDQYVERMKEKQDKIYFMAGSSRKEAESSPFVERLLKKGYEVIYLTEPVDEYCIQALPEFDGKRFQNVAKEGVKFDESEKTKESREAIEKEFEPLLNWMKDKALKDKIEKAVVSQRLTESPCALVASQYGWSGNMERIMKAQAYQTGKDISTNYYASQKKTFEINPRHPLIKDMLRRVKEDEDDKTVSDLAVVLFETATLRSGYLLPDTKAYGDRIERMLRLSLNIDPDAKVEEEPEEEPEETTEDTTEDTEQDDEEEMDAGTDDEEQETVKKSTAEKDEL

As to `CO[C@H]1C=CC=C(C)C(=O)Nc2cc(O)c(N)c(c2O)C=C(C)C[C@H](OC)[C@H](O)[C@@H](C)/C=C(\C)[C@@H]1OC(N)=O` [17-amino-17-demethoxygeldanamycin], the EC50 (as a rule, the concentration needed to bring the measured effect to its halfway point) amounted to 48 nM.
